The results in this text go back to patent US10189841B2, “Purinones as ubiquitin-specific protease 1 inhibitors” (Forma Therapeutics, Inc., priority 2015, dated 2019).

A word on the IC50: it is the point on the concentration scale where inhibition reaches its midpoint. Read a low IC50 as greater potency.

Molecules are shown by their SMILES.

The target in the assay is USP1 (construct USP1 (I-785, GG670, 671AA)/UAF1 (I-677)-Flag) (Homo sapiens (Human), UniProt O94782, G670A/G671A). Kind of assay: Ubiquitin-Rhodamine 110 assay for USP1 activity. The conditions noted are these: USP1/UAF1 25 pM, Ub-Rh110 25 nM, 30 min preincubation. In kind it is biochemical. How it is done: Example 53: Ubitquin-Rhodamine 110 Assay for USP1 Activity
USP1 (construct USP1 (I-785, GG670, 671AA)/UAF1 (I-677)-Flag), sequence (O94782 whole entry G670A/G671A): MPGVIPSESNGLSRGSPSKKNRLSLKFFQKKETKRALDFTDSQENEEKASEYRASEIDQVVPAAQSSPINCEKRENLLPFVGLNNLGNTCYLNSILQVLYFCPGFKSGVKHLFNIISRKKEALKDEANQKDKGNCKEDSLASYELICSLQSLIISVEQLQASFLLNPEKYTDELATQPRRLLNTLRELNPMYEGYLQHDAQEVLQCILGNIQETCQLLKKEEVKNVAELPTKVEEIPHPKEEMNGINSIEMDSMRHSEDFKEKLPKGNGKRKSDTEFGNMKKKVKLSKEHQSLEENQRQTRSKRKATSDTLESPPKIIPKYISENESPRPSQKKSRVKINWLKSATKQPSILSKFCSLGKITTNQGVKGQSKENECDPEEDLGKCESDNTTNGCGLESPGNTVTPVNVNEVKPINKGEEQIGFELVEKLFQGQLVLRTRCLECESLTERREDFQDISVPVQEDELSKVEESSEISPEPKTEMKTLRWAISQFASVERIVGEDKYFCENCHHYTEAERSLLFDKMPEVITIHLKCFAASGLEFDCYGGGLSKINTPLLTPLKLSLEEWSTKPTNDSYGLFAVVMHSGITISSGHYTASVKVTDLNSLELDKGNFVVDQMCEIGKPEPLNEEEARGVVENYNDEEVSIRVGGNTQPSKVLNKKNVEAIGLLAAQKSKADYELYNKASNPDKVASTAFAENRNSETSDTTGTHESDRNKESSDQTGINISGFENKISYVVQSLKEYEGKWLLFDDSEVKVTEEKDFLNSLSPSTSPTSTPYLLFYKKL
USP1 (construct USP1 (I-785, GG670, 671AA)/UAF1 (I-677)-Flag), sequence (Q8TAF3 whole entry partner): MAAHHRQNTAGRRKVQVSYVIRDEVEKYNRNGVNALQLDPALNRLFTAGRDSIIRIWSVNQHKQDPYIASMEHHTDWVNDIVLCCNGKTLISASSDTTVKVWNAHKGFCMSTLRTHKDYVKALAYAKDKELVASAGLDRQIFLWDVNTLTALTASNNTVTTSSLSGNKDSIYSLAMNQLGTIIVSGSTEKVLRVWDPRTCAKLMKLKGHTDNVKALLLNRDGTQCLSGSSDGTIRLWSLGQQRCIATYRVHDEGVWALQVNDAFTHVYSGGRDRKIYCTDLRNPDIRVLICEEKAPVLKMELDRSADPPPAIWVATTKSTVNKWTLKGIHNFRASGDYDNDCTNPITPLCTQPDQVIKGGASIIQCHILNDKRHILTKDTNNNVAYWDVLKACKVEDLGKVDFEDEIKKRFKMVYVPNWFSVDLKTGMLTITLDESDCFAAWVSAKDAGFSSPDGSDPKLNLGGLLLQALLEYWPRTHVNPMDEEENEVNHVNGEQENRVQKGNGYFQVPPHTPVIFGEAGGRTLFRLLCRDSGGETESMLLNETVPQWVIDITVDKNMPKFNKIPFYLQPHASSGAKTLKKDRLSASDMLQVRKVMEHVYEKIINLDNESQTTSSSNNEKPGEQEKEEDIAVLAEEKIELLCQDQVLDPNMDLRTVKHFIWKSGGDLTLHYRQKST
The HTS assay was performed in a final volume of 20 μL in assay buffer containing 20 mM Tris-HCl (pH 8.0, (1M Tris-HCl, pH 8.0 solution; Corning 46-031-CM)), 2 mM CaCl2 (1M Calcium Chloride solution; Sigma #21114) 1 mM GSH (L-Glutathione reduced; Sigma #G4251), 0.01% Prionex ([…] filtered, Sigma #G-0411), and 0.01% Triton X-100. Stock compound solutions were stored at −20° C. as 10 mM in DMSO. Up to 1 month prior to the assay, 2 mM test compounds were pre-dispensed into assay plates (Black, low volume; Corning #3820) and frozen at −20° C. Prestamped assay plates were allowed to come to room temperature on the day of the assay. For the screen, 100 nL of 2 mM was pre-dispensed for a final screening concentration of […] (DMSO(fc)=0.5%). The final concentration of the enzyme (USP1, construct USP1 (I-785, GG670, 671AA)/UAF1 (I-677)-Flag; Viva) in the assay was 100 pM. Final substrate (Ub-Rh110; Ubiquitin-Rhodamine 110, R&D Systems #U-555) concentration was 25 nM with [Ub-Rh110]<<Km. […] Plates were incubated stacked for 45 minutes at room temperature before fluorescence was read on the Envision (Excitation at 485 nm and Emission at 535 nm; Perkin Elmer) or on the PheraSTAR (Excitation at 485 nm and Emission at 535 nm; BMG Labtech)
Nanoliter quantities of either an 8-point or 10-point, 3-fold serial dilution in DMSO was pre-dispensed into assay plates (Perkin Elmer, ProxiPlate-384 F Plus, #6008269) for a final test concentration range of either 25 μM to 11 nM or 25 μM to 1.3 nM, respectively. The final concentration of the enzyme (USP1, construct USP1 (I-785, GG670, 671AA)/UAF1 (I-677)-Flag; Viva) in the assay was 25 pM. Final substrate (Ub-Rh110; Ubiquitin-Rhodamine 110, R&D Systems #U-555) concentration was 25 nM with [Ub-Rh110]<<Km. […] Plates were incubated stacked for 20 minutes at room temperature before 5 μL of stop solution (final concentration of 10 mM citric acid in assay buffer (Sigma, #251275-500G)). Fluorescence was read on the Envision (Excitation at 485 nm and Emission at 535 nm; Perkin Elmer) or on the PheraSTAR (Excitation at 485 nm and Emission at 535 nm; BMG Labtech).
For both assay formats data were reported as percent inhibition compared with control wells based on the following equation: % inh=[1−((FLU−AveLow)/(AveHigh−AveLow))]×100 where FLU=measured Fluorescence, AveLow=average Fluorescence of no enzyme control (n=16), and AveHigh=average Fluorescence of DMSO control (n=16). IC50 values were determined by curve fitting of the standard 4 parameter logistic fitting algorithm included in the Activity Base software package: IDBS XE Designer Model205. Data is fitted using the Levenburg Marquardt algorithm.
In turn, `Cc1cc(C(F)(F)F)nn1-c1ccc(Cn2c(=O)[nH]c3cnc(-c4cccnc4C(C)C)nc32)cc1` [Compound I-40, 2-(2-isopropylpyridin-3-yl)-9-(4-(5-methyl-3-(trifluoromethyl)-1H-pyrazol-1-yl)benzyl)-7,9-dihydro-8H-purin-8-one] gave a 50% inhibitory concentration (IC50) of under 50 nM.

Compound `CC(C)c1ncccc1-c1ncc2c(n1)n(Cc1ccc(-c3nc(C(F)(F)F)cn3C)cc1)c(=O)n2CCO` [Compound I-123, 7-(2-hydroxyethyl)-2-(2-isopropylpyridin-3-yl)-9-(4-(1-methyl-4-(trifluoromethyl)-1H-imidazol-2-yl)benzyl)-7,9-dihydro-8H-purin-8-one] gave a concentration for half-maximal inhibition (IC50) of 50 to 200 nM.

Regarding `CC(C)c1ccccc1-c1ncc2c(n1)n(Cc1ccc(-c3ccc(OCCN(C)C)cc3)cc1)c(=O)n2C` [Compound I-261, 9-((4′-(2-(dimethylamino)ethoxy)-[1,1′-biphenyl]-4-yl)methyl)-2-(2-isopropylphenyl)-7-methyl-7,9-dihydro-8H-purin-8-one], the half-maximal inhibitory concentration (IC50) lay within 50 to 200 nM.

For the compound `CC(C)c1ncccc1-c1ncc2c(n1)n(Cc1ccc(-c3nc(C(F)(F)F)cn3C)cc1F)c(=O)n2C` [Compound I-127, 9-(2-fluoro-4-(1-methyl-4-(trifluoromethyl)-1H-imidazol-2-yl)benzyl)-2-(2-isopropylpyridin-3-yl)-7-methyl-7,9-dihydro-8H-purin-8-one], the concentration for half-maximal inhibition (IC50) lay in the range of 50 to 200 nM.

As for `CC(C)c1ccccc1-c1nc(N(C)C)c2[nH]c(=O)n(Cc3ccc(-c4nc(C(F)(F)F)cn4C)cc3)c2n1` [Compound I-533, 6-(Dimethylamino)-2-(2-isopropylphenyl)-9-(4-(1-methyl-4-(trifluoromethyl)-1H-imidazol-2-yl)benzyl)-7,9-dihydro-8H-purin-8-one], the IC50 is under 50 nM.

For `Cn1cc(C(F)(F)F)nc1-c1ccc(Cn2c(=O)[nH]c3cnc(-c4cccnc4N4CC(F)C4)nc32)cc1` [Compound I-334, 2-(2-(3-fluoroazetidin-1-yl)pyridin-3-yl)-9-(4-(1-methyl-4-(trifluoromethyl)-1H-imidazol-2-yl)benzyl)-7,9-dihydro-8H-purin-8-one], the IC50 was under 50 nM.

As to `CC(C)c1ccccc1-c1ncc2[nH]c(=O)n(Cc3ccc(-c4nccn5ccnc45)cc3)c2n1` [Compound I-291, 9-(4-(imidazo[1,2-a]pyrazin-8-yl)benzyl)-2-(2-isopropylphenyl)-7,9-dihydro-8H-purin-8-one], the IC50 was under 50 nM.

In turn, `CC(C)c1ncccc1-c1ncc2c(n1)n(Cc1ccc(-c3nc(C4CC4)cn3C)cc1)c(=O)n2C` [Compound I-515, 9-(4-(4-cyclopropyl-1-methyl-1H-imidazol-2-yl)benzyl)-2-(2-isopropylpyridin-3-yl)-7-methyl-7,9-dihydro-8H-purin-8-one] returned an IC50 of 50 to 200 nM.

`CC(C)c1ncccc1-c1ncc2c(n1)n(Cc1ccc(-n3cccn3)cc1)c(=O)n2C` [Compound I-7, 9-(4-(1H-pyrazol-1-yl)benzyl)-2-(2-isopropylpyridin-3-yl)-7-methyl-7,9-dihydro-8H-purin-8-one] had a half-inhibitory concentration (IC50) of 200 to 2000 nM.

Compound `CN(C)c1ncccc1-c1ncc2[nH]c(=O)n(Cc3ccc(-c4nc(C(F)(F)F)cn4C)cc3)c2n1` [Compound I-323, 2-(2-(dimethylamino)pyridin-3-yl)-9-(4-(1-methyl-4-(trifluoromethyl)-1H-imidazol-2-yl)benzyl)-7,9-dihydro-8H-purin-8-one] showed a 50% inhibitory concentration (IC50) of under 50 nM.

In the case of `CC(C)c1ccccc1-c1ncc2[nH]c(=O)n(Cc3ccc(C(=O)NCc4cnn(C)c4)cc3)c2n1` [Compound I-361, 4-((2-(2-isopropylphenyl)-8-oxo-7,8-dihydro-9H-purin-9-yl)methyl)-N-((1-methyl-1H-pyrazol-4-yl)methyl)benzamide], the half-inhibitory concentration (IC50) was in the range of 200 to 2000 nM.

`CC(C)c1ccccc1-c1ncc2[nH]c(=O)n(Cc3ccc(C(=O)N4CCCC4C)cc3)c2n1` (stereo not shown) [Compound I-390, 2-(2-isopropylphenyl)-9-(4-(2-methylpyrrolidine-1-carbonyl)benzyl)-7,9-dihydro-8H-purin-8-one]: the IC50 is under 50 nM.

`Cc1cc(C(F)F)nn1-c1ccc(Cn2c(=O)[nH]c3cnc(-c4cccnc4C(C)C)nc32)cc1` [Compound I-58, 9-(4-(3-(difluoromethyl)-5-methyl-1H-pyrazol-1-yl)benzyl)-2-(2-isopropylpyridin-3-yl)-7,9-dihydro-8H-purin-8-one] gave an IC50 of under 50 nM.

On to `CC1CCCN(C(=O)c2ccc(Cn3c(=O)[nH]c4cnc(-c5ccccc5C(C)C)nc43)cc2)C1` (stereo not shown) [Compound I-399, 2-(2-isopropylphenyl)-9-(4-(3-methylpiperidine-1-carbonyl)benzyl)-7,9-dihydro-8H-purin-8-one], for which the IC50 is under 50 nM.

Compound `CC(C)c1ccccc1-c1ncc2[nH]c(=O)n(Cc3ccc(-n4c(=O)ccn4C)cc3)c2n1` [Compound I-205, 2-(2-isopropylphenyl)-9-(4-(2-methyl-5-oxo-2,5-dihydro-1H-pyrazol-1-yl)benzyl)-7,9-dihydro-8H-purin-8-one] came in with an IC50 of 50 to 200 nM.

Consider `CC(C)c1ccccc1-c1ncc2c(n1)n(Cc1ccc(-c3cnnn3C)cc1)c(=O)n2C` [Compound I-285, 2-(2-isopropylphenyl)-7-methyl-9-(4-(1-methyl-1H-1,2,3-triazol-5-yl)benzyl)-7,9-dihydro-8H-purin-8-one], for which the concentration for half-maximal inhibition (IC50) was in the range of 200 to 2000 nM.

For the compound `CC(C)c1ccccc1-c1ncc2[nH]c(=O)n(Cc3ccc(-n4ccc(C5CCCN(C)C5)n4)cc3)c2n1` (stereo not shown) [Compound I-444, 2-(2-isopropylphenyl)-9-(4-(3-(1-methylpiperidin-3-yl)-1H-pyrazol-1-yl)benzyl)-7,9-dihydro-8H-purin-8-one], the half-maximal inhibitory concentration (IC50) was under 50 nM.

`COc1nc(-c2ccccc2C(C)C)nc2c1[nH]c(=O)n2Cc1ccc(-c2nc(C(F)(F)F)cn2C)cc1` [Compound I-535, 2-(2-Isopropylphenyl)-6-methoxy-9-(4-(1-methyl-4-(trifluoromethyl)-1H-imidazol-2-yl)benzyl)-7,9-dihydro-8H-purin-8-one] gave a half-maximal inhibitory concentration (IC50) of under 50 nM.

As for `CC(C)NC(=O)c1ccc(Cn2c(=O)[nH]c3cnc(-c4ccccc4C(C)C)nc32)cc1` [Compound I-356, N-isopropyl-4-((2-(2-isopropylphenyl)-8-oxo-7,8-dihydro-9H-purin-9-yl)methyl)benzamide], the concentration for half-maximal inhibition (IC50) was under 50 nM.

The compound `CC(C)c1ccccc1-c1ncc2[nH]c(=O)n(Cc3ccc(C(=O)N4CCC[C@H]4CO)cc3)c2n1` [Compound I-382, (S)-9-(4-(2-(hydroxymethyl)pyrrolidine-1-carbonyl)benzyl)-2-(2-isopropylphenyl)-7,9-dihydro-8H-purin-8-one] returned a half-inhibitory concentration (IC50) of 200 to 2000 nM.

`CC(C)c1c(F)cccc1-c1ncc2[nH]c(=O)n(Cc3ccc(-c4cn(C)cn4)cc3)c2n1` [Compound I-308, 2-(3-fluoro-2-isopropylphenyl)-9-(4-(1-methyl-1H-imidazol-4-yl)benzyl)-7,9-dihydro-8H-purin-8-one]: the IC50 was under 50 nM.

For `CC(C)c1ccccc1-c1ncc2[nH]c(=O)n([C@@H](C)c3ccc(-c4nccn4C)cc3)c2n1` [Compound I-310, (S)-2-(2-isopropylphenyl)-9-(1-(4-(1-methyl-1H-imidazol-2-yl)phenyl)ethyl)-7,9-dihydro-8H-purin-8-one], the half-maximal inhibitory concentration (IC50) is under 50 nM.
